Legend:
[1] = Fluorescence property test of probe with metal ion solution; settings: Zn^2+ solution; CH3OH-H2O (v:v=1:1); FIG. 3
Protocol: (§1) The fluorescence property of the fluorescent probe compound according to the present disclosure was measured, including the following steps:
(§2) (1) Formulating a Probe Solution:
(§3) formulating a solution of 2-(7-(2,8-dimethyl quinoline-6-yl)-5,6,7,8-tetrahydro-1,8-naphthyridin-2-yl) phenol with a concentration of 100 μM in methanol, i.e. a probe solution, and stored at room temperature.
(§4) (2) Formulating Metal Ion Solutions: […]
(§5) the metal ions including: Mg^2+, Fe^2+, Cu^+, Cu^2+, Sn^4+, Co^2+, Mn^2+, K^+, Li^+, Ba^2+, Ca^2+, Cd^2+, Ni^2+, Fe^3+, Al^3+ and Zn^2+; and the respectively solutions of them were prepared from the corresponding hydrochloride salts thereof. Taking a certain amount of metal salts, dissolved in 10 mL of distilled water to formulate a 10-2 mol/L metal ion solution, and stored for later use.
(§6) (3) Fluorescence Property Test:
(§7) formulating solution to be tested: taking 0.5 mL of the formulated probe solution and 0.5 mL of the formulated metal ion solution, mixing with 4 mL solution of a CH3OH—H2O (v:v=1:1) to obtain a solution to be tested of the metal ion.
(§8) formulating blank solution: taking 0.5 mL of the formulated probe solution, mixed with solution of 2.5 mL water and 2 mL methanol.
(§9) analyzing the fluorescence intensity of solution to be tested by fluorescence spectrum, and the analysis result was shown in FIG. 3.

[2] = Fluorescence property test of probe with other metal ion solutions; settings: Mg^2+, Fe^2+, Cu^+, Cu^2+, Sn^4+, Co^2+, Mn^2+, K^+, Li^+, Ba^2+, Ca^2+, Cd^2+, Ni^2+, Fe^3+ or Al^3+; CH3OH-H2O (v:v=1:1); FIG. 3
Protocol: as §1, §2, §3, §4, §5, §6, §7, §8, §9

[3] = Competitive experiment: Zn^2+ detection in presence of other metal ions; settings: Zn^2+ solution (10 NM) plus other metal ion of the same concentration; FIG. 3
Protocol: In order to further verify the specificity of the zinc ion fluorescent probe compound to the zinc ion, a competitive experiment was conducted: adding the Zn^2+ solution (10 NM) into the probe solution formulated in step (1) together with a solution of any other one of the aforesaid metal ions of the same concentration; testing the effects of other competitive ions on the Zn^2+ selectivity of the zinc ion fluorescent probe compound respectively. The test results were shown in FIG. 3 (all test solution was uniformly labeled as “zinc ion fluorescent probe compound+M+Zn”).

[4] = Fluorescence titration with different concentrations of Zn^2+ (detection range and limit); settings: Zn^2+ concentration 4×10^-6 M; FIG. 4
Protocol: Different concentrations of Zn^2+ were added into the probe solution formulated in step (1) to test the fluorescence property of the probe solution, so as to determine the detection range and detection limit for Zn^2+ of the fluorescent probe compound.

For `Cc1ccc2cc(C3CCc4ccc(-c5ccccc5O)nc4N3)cc(C)c2n1` (stereo not shown) [fluorescent probe compound, 2-(7-(2,8-dimethylquinoline-6-yl)-5,6,7,8-tetrahydro-1,8-naphthyridin-2-yl) phenol], the “fluorescence intensity change (F/F0) of the solution to be tested” value [1] was “significant fluorescence decay”, the “fluorescence intensity change (F/F0) of the solution to be tested” value [2] was “changed slightly” and the “change of Zn^2+ detection before and after addition of other competitive ions” value [3] was “almost no change”. The “fluorescence intensity of the compound” value [4] was “dramatic decay”.

Reference: patent publication US11530212B2, “Fluorescent probe compound for zinc ion, as well as preparation method and use thereof” (Wuyi University, priority 2019, dated 2022)
